Values after ≈ are worked out from the molar mass of the structure shown. Where two headings read alike, the source gives them in different places.
Experiments:
[1] = tested on: clinical isolates of S. aureus (MRSA); assay: antibiotic susceptibility profiling of clinical isolates (Vitek2, EUCAST); format: cell-based, Staphylococcus aureus; settings: for Antibiotic-resistance profile, MRSA 1: clinical isolate MRSA 1; for Antibiotic-resistance profile, MRSA 2: clinical isolate MRSA 2; for Antibiotic-resistance profile, MRSA 3: clinical isolate MRSA 3; for Antibiotic-resistance profile, MRSA 4: clinical isolate MRSA 4; for Antibiotic-resistance profile, MRSA 5: clinical isolate MRSA 5; as to all read-outs here: key: R = Resistant; S = Susceptible; I = Intermediate
From the text: (§1) Reference bacterial strains of Staphylococcus aureus (ATCC 25923) and Escherichia coli (ATCC 25922) were used in this study as Gram-positive and negative models, respectively. These reference strains were purchased from the American Type Culture Collection (ATCC, Manassas, VA, USA). Clinical isolates, identified by MALDI-TOF MS (Bruker Daltonik, GmbH, Bremen, Germany), were profiled for their antibiotic susceptibility by using the Vitek2 semiautomated system (bioMérieux, Craponne, France) and according to EUCAST (Version 12, 2022, http://www.eucast.org (accessed on 1 January 2022)). The bacterial cultures were routinely grown on 5% blood agar plates (Biolife Italiana S.r.l., Milan, Italy) and were freshly used in the antibacterial assays.

[2] = tested on: P. falciparum CQ-sensitive (CQ-S) D10 strain; assay: antiplasmodial drug susceptibility assay (pLDH), CQ-sensitive strain; format: cell-based; settings: Plasmodium falciparum, read-out: IC50 D10 (CQ-S)
Procedure: (§2) P. falciparum cultures were carried out according to Trager and Jensen with slight modifications. The CQ-sensitive strain D10 and the CQ-resistant strain W2 were maintained at 5% hematocrit (human A-positive erythrocytes) in RPMI 1640 medium (EuroClone S.p.A, Milan, Italy) with the addition of 1% AlbuMax (Invitrogen, San Diego, California, USA), 0.01% hypoxanthine, 20 mM Hepes, and 2 mM glutamine at 37 °C in a standard gas mixture (1% O2, 5% CO2, and 94% N2). […] Drugs were placed in 96-well flat-bottomed microplates, and serial dilutions were made. Asynchronous cultures with parasitaemia of 1–1.5% and 1% final hematocrit were aliquoted into the plates and incubated for 72 h at 37 °C. Parasite growth was determined spectrophotometrically (OD650nm) by measuring the activity of the parasite lactate dehydrogenase (pLDH), as described in a modified version of Makler’s method in control- and drug-treated cultures. The antiplasmodial activity is expressed as 50% inhibitory concentrations (IC50); each IC50 value is the mean ± standard deviation of at least three separate experiments performed in duplicate.

[3] = tested on: P. falciparum CQ-resistant (CQ-R) W2 strain; assay: antiplasmodial drug susceptibility assay (pLDH), CQ-resistant strain; format: cell-based; settings: Plasmodium falciparum, read-out: IC50 W2 (CQ-R)
Procedure: as §2

[4] = tested on: S. aureus ATCC 25923; assay: broth microdilution antimicrobial assay (MIC, IC50); format: cell-based; settings: Staphylococcus aureus, ATCC25923; for MIC: broth microdilution, 24 h, range 100–0.19 µM; for IC50: S. aureus ATCC 25923, 24 h, OD630, mean value with standard deviation, read-out: IC50 ATCC 25923
From the text: as §1
(§3) The minimum inhibitory concentrations (MICs) were determined using the microbroth dilution method in microtiter plates according to the Clinical and Laboratory Standards Institute (CLSI) guidelines. In short, microbial inocula were prepared at 0.5 McFarland in PBS and, subsequently, bacterial suspensions were diluted 1:200 in Mueller–Hinton broth (Sigma-Aldrich, St. Louis, MO, USA), while fungal inoculum was diluted 1:20 in RPMI-1640 medium (Gibco®, ThermoFisher Scientific Inc., Waltham, MA, USA), containing glucose 2%, 0.3% levo-glutamine buffered to pH 7.0 with 0.165 M 3-(N-morpholino)propanesulfonic acid (MOPS). A total of 100 µL of these microbial suspensions was introduced into a 96-well microplate and incubated with 100 µL of the compounds, two-fold serially diluted in the range of 100–0.19 µM. Positive controls (microbial suspensions in regular media), negative controls (only compounds), solvent controls (microbial suspensions incubated with DMSO dilutions), and the reference drug controls were included in the tests. The plate was incubated at 37 °C for 24 h, and subsequently the optical density at 630 nm (OD630nm) was spectrophotometrically measured. Experiments were performed in triplicate with three biological replicates. In addition to MIC, IC50 values were measured for the active compounds. The values, corresponding to the concentration of the compound giving rise to an inhibition of growth of 50%, were obtained by interpolation on dose–response curves generated by plotting the percentages of growth inhibition, relative to the positive control (set to 100% of growth), as a function of the tested concentrations (on a logarithm scale). Statistical analysis was carried out by using GraphPad Prism version 9.4.1 for Windows (GraphPad Software, San Diego, CA, USA, www.graphpad.com).

[5] = tested on: E. coli ATCC 25923; assay: broth microdilution antimicrobial assay (MIC); format: cell-based; settings: Escherichia coli, ATCC25923, 24 h, range 100–0.19 µM
[6] = tested on: C. albicans ATCC 10231; assay: broth microdilution antifungal assay (MIC); format: cell-based; settings: Candida albicans, ATCC10231, 24 h, range 100–0.19 µM
Procedure: The reference strain of Candida albicans (ATCC 10231) was used in the present study and maintained on Sabouraud Dextrose Agar (Biolife Italiana S.r.l., Milan, Italy) before the antifungal assays.
as §3

[7] = cell viability and proliferation assay (CCK-8/WST8); format: cell-based; settings: human, WS1 cells (human-derived fibroblasts, ATCC CRL-1502), mean value with standard deviation
Procedure: WS1 cells (ATCC CRL-1502) were selected as a model system to investigate the effect of PTZ-quinoline hybrid compounds on human-derived fibroblasts. Briefly, cells were cultured in DMEM-High glucose supplemented with 10% fetal bovine serum (FBS) (Carlo Erba Reagents, Milan, Italy), 100 U/mL penicillin, and 100 µg/mL streptomycin at 37 °C with 5% CO2. For experiments, cells were seeded into 96-well plates at 0.7 × 10^4 cells/well, and incubated at 37 °C for 24 h. […] Cell viability was assessed by a WST8-based assay according to the manufacturer’s instructions (CCK-8, Cell Counting Kit-8, Dojindo Molecular Technologies, Rockville, MD, USA). After 48 h of incubation, culture medium was removed from each well, the monolayer was washed with PBS, and 100 µL of fresh medium containing 10 µL of CCK-8 solution was added. Following a 2 h incubation at 37 °C, the OD450nm was read, and data were expressed as the percentage of cell viability relative to the untreated controls. The CC50 was obtained on the corresponding dose–response curves generated as previously reported for IC50 values. Experiments were carried out in triplicate in three biological replicates.

Compound | Antibiotic-resistance profile, MRSA 1 [1] | Antibiotic-resistance profile, MRSA 2 [1] | Antibiotic-resistance profile, MRSA 3 [1] | Antibiotic-resistance profile, MRSA 4 [1] | Antibiotic-resistance profile, MRSA 5 [1] | MIC [4] [µM] | MIC [5] [µM] | further results
CN[C@H](CC(C)C)C(=O)N[C@H]1C(=O)N[C@@H](CC(N)=O)C(=O)N[C@H]2C(=O)N[C@H]3C(=O)N[C@H](C(=O)N[C@H](C(=O)O)c4cc(O)cc(O)c4-c4cc3ccc4O)[C@H](O)c3ccc(c(Cl)c3)Oc3cc2cc(c3O[C@@H]2O[C@H](CO)[C@@H](O)[C@H](O)[C@H]2O[C@H]2C[C@](C)(N)[C@H](O)[C@H](C)O2)Oc2ccc(cc2Cl)[C@H]1O [VA, Vancomycin] | S | S | S | S | S | – | – | –
Clc1ccc2c(N3CCN(CCCn4cc(CN5c6ccccc6Sc6ccccc65)nn4)CC3)ccnc2c1 [Compound 8, 10-((1-(3-(4-(7-chloroquinolin-4-yl)piperazin-1-yl)propyl)-1H-1,2,3-triazol-4-yl)methyl)-10H-phenothiazine] | – | – | – | – | – | > 100 | > 100 | IC50 ([2]; P. falciparum D10, 72 h, pLDH, mean value with standard deviation): 12.6 ± 0.241 µM; IC50 ([3]; P. falciparum W2, 72 h, pLDH, mean value with standard deviation): 2.17 ± 0.243 µM; MIC [6]: > 100 µM; CC50 at 48 h [7]: > 100 µM
Teicoplanin [TEC] | S | S | S | S | S | – | – | –
CCN(CC)CCCC(C)Nc1ccnc2cc(Cl)ccc12 (stereo not shown) [CQ, chloroquine, reference compound] | – | – | – | – | – | – | – | IC50 ([2]; D10, 72 h): 0.025 ± 0.007 µM; IC50 ([3]; W2, 72 h): 0.42 ± 0.103 µM
Clc1ccc2c(N3CCN(CCCCN4c5ccccc5Sc5ccccc54)CC3)ccnc2c1 [Compound 2, 10-(4-(4-(7-chloroquinolin-4-yl)piperazin-1-yl)butyl)-10H-phenothiazine] | – | – | – | – | – | > 100 | > 100 | MIC [6]: > 100 µM; CC50 at 48 h [7]: > 100 µM
C[C@H]1COc2c(N3CCN(C)CC3)c(F)cc3c(=O)c(C(=O)O)cn1c23 [LVX, Levofloxacin] | R | R | R | R | R | – | – | –
Cc1onc(-c2ccccc2)c1C(=O)N[C@@H]1C(=O)N2[C@@H]1SC(C)(C)[C@@H]2C(=O)O [OX, Oxacillin] | R | R | R | R | R | – | – | –
CCC[C@@H]1C[C@@H](C(=O)N[C@@H]([C@H]2O[C@H](SC)[C@H](O)[C@@H](O)[C@H]2O)[C@H](C)Cl)N(C)C1 [CM, Clindamicyn] | – | – | R | S | S | – | – | –
Penicillin | R | R | R | R | R | – | – | –
CC1(C)S[C@@H]2[C@H](NC(=O)[C@H](N)c3ccccc3)C(=O)N2[C@H]1C(=O)O [AMP, ampicillin, reference compound] | – | – | – | – | – | 4.2 (≈ 1.47 µg/mL) | 67.3 (≈ 23.5 µg/mL) | IC50 [4]: 2.59 ± 0.13 µM
CNC(C)C1CCC(N)C(OC2C(N)CC(N)C(OC3OCC(C)(O)C(NC)C3O)C2O)O1 (stereo not shown) [GEN, gentamicin] | S | S | S | S | S | 6.6 (≈ 3.15 µg/mL) | 1.03 (≈ 0.492 µg/mL) | IC50 [4]: 4 ± 0.05 µM
OC(Cn1cncn1)(Cn1cncn1)c1ccc(F)cc1F [FLC, Fluconazole, reference compound] | – | – | – | – | – | – | – | MIC [6]: 0.82 µM (≈ 0.251 µg/mL)
Clc1ccc2c(-n3cc(CN4c5ccccc5Sc5ccccc54)nn3)ccnc2c1 [Compound 7, 10-((1-(7-chloroquinolin-4-yl)-1H-1,2,3-triazol-4-yl)methyl)-10H-phenothiazine] | – | – | – | – | – | > 100 | > 100 | MIC [6]: > 100 µM; CC50 at 48 h [7]: > 100 µM
CN(C)[C@@H]1C(O)=C(C(N)=O)C(=O)[C@@]2(O)C(O)=C3C(=O)c4c(O)cccc4[C@@](C)(O)[C@H]3C[C@@H]12 [TE, Tetracycline] | S | S | S | S | S | – | – | –
CC[C@H]1OC(=O)[C@H](C)[C@@H](O[C@H]2C[C@@](C)(OC)[C@@H](O)[C@H](C)O2)[C@H](C)[C@@H](O[C@@H]2O[C@H](C)C[C@H](N(C)C)[C@H]2O)[C@](C)(O)C[C@@H](C)C(=O)[C@H](C)[C@@H](O)[C@]1(C)O [E, Erythromycin] | – | – | R | S | S | – | – | –

From article PMC12561106, “STOP Strategy to Inhibit P. falciparum and S. aureus Growth: Molecular Mechanism Studies on Purposely Designed Hybrids” (Antibiotics, 2025)
